These results are taken from patent US8501777B2, “3,5-disubstituted phenyl-piperidines as modulators of dopamine neurotransmission” (NSAB, Filial AF Neurosearch Sweden AB, Sverige, priority 2005, dated 2013).

Data set [1] has as its system rats pretreated with d-amphetamine. The data set is described as follows: Reduction of amphetamine-induced hyper-locomotion. It is filed as in vivo, rat. As to conditions: read-out: ED50 amf (reduction of amphetamine-induced hyper-locomotion, estimated ED50 values). The protocol: In this model, dopaminergic neurotransmission is increased by systemic administration of d-amphetamine at a dose that is sufficiently high to produce a large increase in locomotor activity. The ability of a compound to antagonize this hyperactivity reflects anti-dopaminergic properties, which are part of the dopaminergic stabiliser profile.
Behavioural activity was measured using eight Digiscan activity monitors (RXYZM (16) TAO, Omnitech Electronics, Columbus, Ohio, USA), connected to an Omnitech Digiscan analyzer and a Apple Macintosh computer equipped with a digital interface board (NB DIO-24, National Instruments, USA). Each activity monitor consisted of a quadratic metal frame (W×L 40×40 cm) equipped with photobeam sensors. During measurements of behavioural activity, a rat was put in a transparent acrylic cage (W×L×H, 40×40×30 cm) which in turn was placed in the activity monitor. Each activity monitor was equipped with three rows of infrared photobeam sensors, each row consisting of 16 sensors. Two rows were placed along the front and the side of the floor of the cage, at a 90° angle, and the third row was placed 10 cm above the floor to measure vertical activity. Photobeam sensors were spaced 2.5 cm apart. Each activity monitor was fitted in an identical sound and light attenuating box containing a weak house light and a fan.
Behavioural data from each activity monitor, representing the position (horizontal centre of gravity and vertical activity) of the animal at each time, were recorded at a sampling frequency of 25 Hz and collected using a custom written LABView™ application. The data from each recording session were stored and analyzed with respect to distance traveled. Each behavioural recording session lasted 60 min, starting approximately 4 min after the injection of test compound. […] The results are presented as counts/60 minutes, or counts/30 minutes, in arbitrary length units. Statistical comparisons were carried out using student's t-test vs the control group.
For most compounds, the evaluation is based on 16 amphetamine pre-treated animals over the dose range 0, 11, 33 and 100 μmol/kg s.c. in one single experiment, with complementary doses in separate experiments. Calculations are based on distance during the last 45 minutes of one hour of measurement. […] To estimate confidence levels for the parameters, the fit is repeated 100 times with a random evenly distributed squared weight (0 to 1) for every measurement value.

The subject of the next data set is MK-801 pre-treated rats. The experiment in a line: Locomotor activity in MK-801 pre-treated rats. Format: in vivo, rat. As to conditions: MK-801 0.7 mg/kg i.p. 90 min before test compound, recorded 30-60 min after administration. Here is the method:
Another animal model of antipsychotic activity is based on administration of the glutamate antagonist MK-801. Glutamate antagonists (i.e. NMDA antagonists), can induce psychoses in man (see Psychopharmacology, 4th Generation of progress Chapter 101, p. 1205 and 1207) and induce behavioural aberrations in animals. […] In this study the NMDA antagonist MK-801 (0.7 mg/kg i.p.) was used to create a hypoglutamatergic state where the rats display abnormal, hyperactive behaviour. Compounds in the present invention dose-dependently reverse the behavioural aberration induced by MK-801 (see Table 2).
Behavioural activity was measured using eight Digiscan activity monitors (RXYZM (16) TAO, Omnitech Electronics, Columbus, Ohio, USA), connected to an Omnitech Digiscan analyzer and a Apple Macintosh computer equipped with a digital interface board (NB DIO-24, National Instruments, USA). Each activity monitor consisted of a quadratic metal frame (W×L 40×40 cm) equipped with photobeam sensors. […]
Behavioural data from each activity monitor, representing the position (horizontal centre of gravity and vertical activity) of the animal at each time, were recorded at a sampling frequency of 25 Hz and collected using a custom written LABView™ application. The data from each recording session were stored and analyzed with respect to distance traveled. […]

Data set [2] relates to 3,4 dihydroxyphenylacetic acid (DOPAC) in striatum. The experiment in a line: In vivo neurochemistry: DOPAC in striatum. The note with it: rat, 100 μmol/kg s.c. From the text:
After the behavioural activity sessions, the rats were decapitated and their brains rapidly taken out and put on an ice-cold petri-dish. The limbic forebrain, the striatum, the frontal cortex and the remaining hemispheral parts of each rat were dissected and frozen. Each brain part was subsequently analyzed with respect to its content of monoamines and their metabolites.
The monoamine transmitter substances (NA (noradrenaline), DA (dopamine), 5-HT (serotonin)) as well as their amine (NM (normethanephrine), 3-MT (3-methoxytyramine)) and acid (DOPAC (3,4-dihydroxyphenylacetic acid), 5-HIAA (5-hydroxyindoleacetic acid), HVA (homovanillic acid)) metabolites are quantified in brain tissue homogenates by HPLC separations and electrochemical detection.
The analytical method is based on two chromatographic separations dedicated for amines or acids. Two chromatographic systems share a common auto injector with a 10-port valve and two sample loops for simultaneous injection on the two systems. Both systems are equipped with a reverse phase column (Luna C18(2), dp 3μ, 50*2 mm i.d., Phenomenex) and electrochemical detection is accomplished at two potentials on glassy carbon electrodes (MF-1000, Bioanalytical Systems, Inc.). Via a T-connection the column effluent is passed to the detection cell or to waste. […]

The nature of data set [3]: Metabolic stability in rat liver microsomes. Format: in vitro ADME. As to conditions: 15 min incubation at 37° C., NADPH. The protocol:
Rat liver microsomes were isolated as described by Forlin (1980) Effects of Clophen A50, 3-methylcholantrene, pregnenolone-16aq-carbonitrile and Phenobarbital on the hepatic microsomal cytochrome P-450-dependent monooxygenaser system in rainbow trout, salmo garirdneri, of different age and sex. Tox Appl Pharm. […]
1 μL of, 0.2 or 1 mM test substance diluted in water and 10 μL 20 mg/mL rat liver micro-some were mixed with 149 μL 37° C. buffer 1 and the reaction was started by addition of 40 μL 4.1 mg/mL NADPH. […] The test compound was analysed using HPLC-MS (Hewlett-Packard 1100MSD Series) with a Zorbax SB-C18 column (2.1*150 mm, 5 μm) using 0.03% formic acid and acetonitrile as mobile phase (gradient) or a Zorbax Eclipse XDB-C18 (3*75 mm, 3.5 μm) using 0.03% acetic acid and acetonitrile as mobile phase (gradient). The 15 min turnover was calculated as the fraction of test compound eliminated after 15 minutes, expressed in percent of 0 min levels, ie 100*[conc test compound at 0 min−concentration at 15 min]/conc at 0 min.
Background: Liver microsomes are vesicles of endoplasmic reticulum, rich in cytochrome P450 enzymes.

Another data set addresses hERG ion channel (Homo sapiens, UniProt Q12809). The data set is described as follows: hERG affinity by Rapid ICE automated patch-clamp (HEK293 cells stably transfected with HERG cDNA). (hERG is a cardiac potassium channel; its block is linked to QT prolongation.)
Data set [4] can be described thus: Oral bioavailability in rat. Format: in vivo. The note with it: plasma, oral 12.5 μmol/kg vs i.v. 5 μmol/kg, AUC ratio. The protocol:
Experiments are performed 24 hours after implantation of arterial and venous catheters. Test compound is administered orally at 12.5 μmol/kg or intravenously at 5 μmol/kg using the venous catheters, n=3 per group. Arterial blood samples are then taken during […] at 0, 3, 9, 27, 60, 120, 180, 240, 300 and, 360 minutes after administration of the test compound. The oral bioavailability was calculated as the ratio of the AUC (Area under curve) obtained after oral administration over the AUC obtained after intravenous administration for each rat. The parameter AUC was calculated according to the following: AUC: the area under the plasma concentration versus time curve from time zero to the last concentration measured (Clast), calculated by the log/linear trapezoidal method.
The levels of test compound are measured by means of liquid chromatography-mass spectrometry (LC-MS). (Hewlett-Packard 1100MSD Series). The module include a quaternary pump system, vacuum degasser, thermostatted autosampler, thermostatted column compartment, diode array detector and API-ES spray chamber. […]
Extractions procedure: Plasma samples (0.25-0.5 ml) were diluted with water to 1 ml, and 60 pmol (100 μl) internal standard (−)-OSU6241 was added. […] The selective ion (MH^+) was monitored for each Example, and MH^+ 296 for (−)-OSU6241 ((3-[3-(ethylsulfonyl)phenyl]-1-propylpiperidine). […]

Setting [5] is: rat, test compound s.c., d-amphetamine 1.5 mg/kg i.p., distance during last 45 min of one hour.

As usually defined, the ED50 is the midpoint of the dose-response relation. As a reminder, the melting point is the temperature of the solid-liquid transition. The IC50 is the concentration needed to halve the response being measured. In general, bioavailability refers to the share of a dose that reaches the circulation, judged against a reference dose that is usually intravenous.

Where a name gives a salt, the structure may show the parent alone. Read-outs that look alike come from different tables or passages of the source.

Sequence of hERG ion channel (Q12809 whole entry): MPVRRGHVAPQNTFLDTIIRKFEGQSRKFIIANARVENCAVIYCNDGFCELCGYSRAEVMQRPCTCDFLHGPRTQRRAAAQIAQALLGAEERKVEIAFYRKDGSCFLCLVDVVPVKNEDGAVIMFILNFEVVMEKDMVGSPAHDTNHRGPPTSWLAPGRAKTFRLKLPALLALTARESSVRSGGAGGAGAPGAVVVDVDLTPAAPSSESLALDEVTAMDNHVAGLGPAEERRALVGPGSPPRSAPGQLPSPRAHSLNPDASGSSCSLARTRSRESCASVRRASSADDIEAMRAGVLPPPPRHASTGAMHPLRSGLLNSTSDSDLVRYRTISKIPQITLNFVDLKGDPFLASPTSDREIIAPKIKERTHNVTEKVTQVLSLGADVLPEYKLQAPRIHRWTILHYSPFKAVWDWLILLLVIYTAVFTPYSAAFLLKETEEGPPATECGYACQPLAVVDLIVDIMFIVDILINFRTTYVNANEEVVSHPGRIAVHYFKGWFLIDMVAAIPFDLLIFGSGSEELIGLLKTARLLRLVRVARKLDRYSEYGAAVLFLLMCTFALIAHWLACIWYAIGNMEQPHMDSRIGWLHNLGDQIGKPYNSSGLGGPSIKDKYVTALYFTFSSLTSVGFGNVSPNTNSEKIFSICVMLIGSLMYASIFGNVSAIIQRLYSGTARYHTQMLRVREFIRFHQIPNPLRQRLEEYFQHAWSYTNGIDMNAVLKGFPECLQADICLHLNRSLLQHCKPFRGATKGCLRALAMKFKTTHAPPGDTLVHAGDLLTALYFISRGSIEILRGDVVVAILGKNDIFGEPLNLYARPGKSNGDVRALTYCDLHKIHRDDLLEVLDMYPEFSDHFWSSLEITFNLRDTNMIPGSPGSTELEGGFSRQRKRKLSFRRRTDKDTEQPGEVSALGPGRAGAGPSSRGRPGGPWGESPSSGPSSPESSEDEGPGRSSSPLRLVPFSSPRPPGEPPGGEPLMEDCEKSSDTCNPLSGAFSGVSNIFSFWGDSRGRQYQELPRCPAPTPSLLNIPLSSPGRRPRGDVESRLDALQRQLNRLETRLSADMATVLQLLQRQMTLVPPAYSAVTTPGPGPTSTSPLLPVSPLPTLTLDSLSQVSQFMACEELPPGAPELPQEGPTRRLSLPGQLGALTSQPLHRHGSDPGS
Description for hERG ion channel: Rapid ICE™ (Rapid Ion Channel Electrophysiology) is an automated patch-clamp assay utilising the PatchXpress 7000A system (Axon Instruments). Rapid ICE™ assesses the effect of test substances on HERG tail current recorded from HEK293 cells stably transfected with HERG cDNA.
HERG.T.HEK (HEK293 cells stably transfected with HERG cDNA) were obtained from the University of Wisconsin. These cells are held in cryogenic storage at Quintiles and also maintained in culture. The cells are continuously maintained in and passaged using minimum essential medium supplemented with 10% foetal bovine serum, 1% non-essential amino acids, 1% sodium pyruvate and 0.4 mg/ml geneticin. For use in Rapid ICE™ studies, 4 ml of the cells are placed into falcon tubes at a density of 2.5×10^5/ml. The falcon tubes are stored in a humidified, gassed (5% CO2) incubator at 37° C. and cells are used within 2.5 h of storage. Just prior to experimentation, these cells are centrifuged at 1000 rpm for 1 min, the supernatant decanted and the cells re-suspended in 150 μl of bath solution in a 1.5 ml eppendorf tube.
The PatchXpress system is primed with appropriate extracellular (bath) and intracellular (pipette) solutions prior to conducting a study. A 16 well sealchip (Sealchip16, Aviva Bio-sciences Corp) is loaded into the system and primed before preparing cells in the bath solution suspension. The cell eppendorf is placed into the designated position and the procedure commences with the trituration and dispersion of cells into each well (recording chamber) of the sealchip. The PatchXpress system follows the general principles of conventional whole-cell patch-clamping: a high resistance seal is formed between the patch electrode and an individual cell, the membrane across the electrode tip is ruptured and the whole-cell patch-clamp configuration is established. If the quality of the cell is judged to be poor, the experiment may be terminated at this point and if necessary, the process repeated on another sealchip.
Once a stable patch has been achieved, recording commences in voltage-clamp mode, with the cell initially clamped at −80 mV. The standard voltage profile is as follows: step from −80 mV to −50 mV for 200 ms, +20 mV for 4.8 s, step to −50 mV for 5 s then step to the holding potential of −80 mV. The step from −80 mV to the test command (+20 mV) results in an outward current (i.e. current flows out of the cell) and the step from the test command (+20 mV) to −50 mV results in the tail current (the tail current represents deactivation of the current over time). […] Each value represents the average current recorded from 4 sequential voltage pulses. For each cell the effects of the test substance is determined by calculating the residual current (% control) compared with vehicle pre-treatment. […]

In the case of `CCCN1CCC(c2cccc(S(C)(=O)=O)c2)CC1`, the ED50 in data set [1] (Rattus norvegicus) was 52 µmol/kg.
In turn, `CCCN1CCC(c2cc(F)cc(S(C)(=O)=O)c2)CC1` (as salt: hydrochloric acid salt) [Example 1, 4-[3-fluoro-5-(methylsulfonyl)phenyl]-1-propylpiperidine] returned a melting point of 187 to 189 °C.
On the same count and under the same terms, then `CCN1CCC(c2cc(F)cc(S(C)(=O)=O)c2)CC1` (as salt: hydrochloric acid salt) [Example 2, 1-ethyl-4-[3-fluoro-5-(methylsulfonyl)phenyl]piperidine], with 176 to 178 °C.
With `CCCN1CCC(c2cc(F)cc(S(C)(=O)=O)c2)CC1` [Example 1, 4-[3-fluoro-5-(methylsulfonyl)phenyl]-1-propylpiperidine], the ED50 in data set [1] (setting [5]) is 12 µmol/kg. In the data set on MK-801 pre-treated rats, the “Locomotor activity, MK + example 100 μmol/kg” value is on record as 20858 ± 4638 (P = 0.01) counts/30 min ± SEM. Besides, the DOPAC in striatum in data set [2] is 318 % of control. For the same compound, the “Turnover at 15 minutes in rat liver microsomes” value in data set [3] was 5%. Also, on hERG ion channel, the IC50 is 9.8 µM.
`CCN1CCC(c2cc(F)cc(S(C)(=O)=O)c2)CC1` [Example 2, 1-ethyl-4-[3-fluoro-5-(methylsulfonyl)phenyl]piperidine]: in data set [1] (setting [5]), the ED50 was 28 µmol/kg. Moreover, the “Locomotor activity, MK + example 100 μmol/kg” value with MK-801 pre-treated rats is 24012 ± 5511 (P = 0.03) counts/30 min ± SEM. The DOPAC in striatum in data set [2] is 292 % of control. Also, the “Turnover at 15 minutes in rat liver microsomes” value in data set [3] is on record as 0%. Besides, the bioavailability in data set [4] was about 85%. Also, 21.7 µM corresponded to half-maximal inhibition against hERG ion channel (IC50).
For the compound `CCCN1CCC(c2ccc(Cl)c(C(F)(F)F)c2)CC1` [reference compound], the ED50 in data set [1] (Rattus norvegicus) is 34 µmol/kg. This compound yielded a half-inhibitory concentration (IC50) on hERG ion channel of 0.61 µM.
With `CCCN1CCC(c2cc(F)cc(C(F)(F)F)c2)CC1` [reference compound], in data set [1] (setting [5]), the ED50 is 14 µmol/kg. Moreover, the IC50 at hERG ion channel came out at 1.5 µM.
